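Compound exposure: 48 hours, 5 concentrations, 96-well plates. Here, GI50 denotes the concentration required for 50% inhibition of growth. TGI is the concentration that stops growth completely.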
What was measured:
Experiment in all cases: NCI anticancer screen, dose series, 48 h
SK-OV-3 ovarian = test system: SK-OV-3 ovarian
LOX IMVI melanoma = test system: LOX IMVI melanoma
K-562 leukemia = test system: K-562 leukemia
HOP-62 NSCLC = test system: HOP-62 NSCLC
NCI-H460 lung = test system: NCI-H460 lung
HCT-116 colon = test system: HCT-116 colon
COLO 205 colon = test system: COLO 205 colon
HOP-92 NSCLC = test system: HOP-92 NSCLC
MALME-3M melanoma = test system: MALME-3M melanoma
DU-145 prostate = test system: DU-145 prostate

SMILES	GI50 (SK-OV-3 ovarian)	TGI (SK-OV-3 ovarian)	GI50 (LOX IMVI melanoma)	TGI (LOX IMVI melanoma)	GI50 (K-562 leukemia)	TGI (K-562 leukemia)	GI50 (HOP-62 NSCLC)	TGI (HOP-62 NSCLC)	GI50 (NCI-H460 lung)	TGI (NCI-H460 lung)	GI50 (HCT-116 colon)	TGI (HCT-116 colon)	GI50 (COLO 205 colon)	TGI (COLO 205 colon)	GI50 (HOP-92 NSCLC)	TGI (HOP-92 NSCLC)	GI50 (MALME-3M melanoma)	TGI (MALME-3M melanoma)	GI50 (DU-145 prostate)	TGI (DU-145 prostate)
CC1(C)N=C(N)N=C(N)N1c1ccc(OCCCNC(=O)Nc2ccc(S(=O)(=O)F)cc2)c(Cl)c1	8.83 µM	> 100 µM	0.12 µM	> 100 µM	0.0497 µM	> 100 µM	0.82 µM	> 100 µM	0.0486 µM	> 37.6 µM	0.0613 µM	> 100 µM	0.854 µM	> 100 µM	2.74 µM	61.9 µM	2.02 µM	> 100 µM	0.277 µM	> 100 µM
Cc1ccc(N)c(S)c1		70.8 µM		30 µM		65.1 µM		44.4 µM		49.9 µM		46.8 µM		52.9 µM		30.2 µM		82.6 µM		29.1 µM
COc1cc2c(c3oc(-c4ccc(O)cc4)c(O)c(=O)c13)CCC(C)(C)O2	0.401 µM	5.4 µM	0.104 µM	0.328 µM	0.112 µM		0.0712 µM	0.165 µM	0.0996 µM	0.351 µM	0.172 µM	0.372 µM	2.18 µM	5.02 µM	0.217 µM	0.902 µM	1.42 µM	> 100 µM	0.295 µM	> 44.9 µM
CC(C)=CC[C@@H]1CC2(CC=C(C)C)C(=O)C(OC3(C(=O)c4ccccc4)C(=O)C4(CC=C(C)C)C[C@@H](CC=C(C)C)C(C)(C)C(CC=C(C)C)(C4=O)C3=O)(C(=O)c3ccccc3)C(=O)C(CC=C(C)C)(C2=O)C1(C)C (some centres undefined)	1.41 µM	4 µM	1.23 µM	3.24 µM	1.72 µM	50 µM	1.36 µM	4 µM	1.27 µM	3.07 µM	0.953 µM	2.3 µM	1.2 µM	3.22 µM	1.08 µM	2.86 µM	0.901 µM	2.18 µM	1.35 µM	3.88 µM
Cn1ncnc1[C@@H]1c2n[nH]c(=O)c3cc(F)cc(c23)N[C@H]1c1ccc(F)cc1	> 100 µM	> 100 µM	> 100 µM	> 100 µM	> 100 µM	> 100 µM	> 100 µM	> 100 µM	78.4 µM	> 100 µM	> 100 µM	> 100 µM	> 100 µM	> 100 µM	92.6 µM	> 100 µM	> 100 µM	> 100 µM	> 100 µM	> 100 µM
Cc1cc(I)cc(CNCCN(C)C)c1O	> 100 µM	> 100 µM	44.3 µM	> 100 µM	> 76.1 µM	> 100 µM	> 100 µM	> 100 µM	44.1 µM	> 100 µM	> 68 µM	> 100 µM	> 100 µM	> 100 µM	37.2 µM	> 100 µM	> 87.8 µM	> 100 µM	98.8 µM	> 100 µM
NS(=O)(=O)c1ccc(N(/C=C/C(=O)C(F)(F)F)CC(=O)c2ccc(F)cc2)cc1	63.3 µM	> 100 µM	13.8 µM	34.6 µM	14 µM	54.6 µM	65.4 µM	> 100 µM	28.1 µM	> 100 µM	22.5 µM	> 100 µM	20.5 µM	41.6 µM	21.3 µM	60.9 µM	43.1 µM	78.9 µM	20.6 µM	52.2 µM
CNC(=O)Oc1cc(C(C)C)ccc1Sc1ccc(C(C)C)cc1OC(=O)NC	10.5 µM	23.7 µM	6.09 µM	27.6 µM	1.27 µM	14.5 µM	9.56 µM	22.6 µM	2.44 µM	11 µM	2.68 µM	15.2 µM	14.4 µM	28.8 µM	2.63 µM	9.85 µM	4.75 µM	20.5 µM	4.32 µM	14.3 µM
C=C(CO)C(=O)OC1CC(=C)C2CC(O)C(C)C2C2OC(=O)C(=C)C12 (centres undefined)		> 100 µM		> 100 µM		82.2 µM		46.5 µM		> 100 µM		> 100 µM		90.4 µM		77.6 µM		41.7 µM		> 100 µM
COc1cc(/C=C/C(=O)c2cccc(-n3cc(-c4ccccc4)[nH]c3=O)c2)cc(OC)c1OC	3.27 µM	11.3 µM	0.489 µM	1.67 µM	0.502 µM	> 100 µM	4.12 µM	13.6 µM	1.4 µM	2.69 µM	0.332 µM	1.2 µM	1.51 µM	2.83 µM	10.8 µM	35.6 µM	1.31 µM	3.56 µM	2.16 µM	7.85 µM

— PubChem BioAssay (NCI)
